Laboratory results taken from patent US10165779B2, “Substituted pyrazolylpyrazole derivative and use of same as herbicide” (KYOYU AGRI CO., LTD., priority 2015, dated 2019).

Experiments:
Type in all cases: in vivo
Oryza sativa = assay: Paddy herbicidal activity test, phytotoxicity to transplanted rice; conditions: rice transplanted at 2.0 leaf stage, 30 days
Description: (§1) After treating for 30 days in a glass greenhouse at an average atmospheric temperature of 30° C., the herbicidal efficacy thereof was investigated. Evaluation of herbicidal efficacy was carried out by comparing growth inhibition rate (%) with an untreated group, while evaluation of phytotoxicity was carried out by comparing growth inhibition rate (%) with the state of a complete eradication group, and were evaluated at 11 levels indicated below. […] 2: 20% to less than 30% 3: 30% to less than 40% 4: 40% to less than 50% 5: 50% to less than 60% 6: 60% to less than 70% 7: 70% to less than 80% […]

Digitaria ciliaris [1] = assay: Farming soil treatment test; conditions: soil surface spray prior to weed growth, 30 days
Description: (§2) Field soil was filled into a 1/6000 are pot followed by seeding with Digitaria cilaris, Chenopodium album and Amaranthus retroflexus and covering with soil.
(§3) Wettable powders of compounds of formula (I) shown in Table 1 prepared in compliance with the preparation examples were diluted. with water to the prescribed amount of chemical and uniformly sprayed onto each soil surface layer using 100 liters of sprayed water per 10 are prior to weed growth following seeding.
(§4) After treating for 30 days in a glass greenhouse at an average atmospheric temperature of 30° C., the herbicidal efficacy thereof was investigated.
(§5) Evaluation of herbicidal efficacy was carried out in the same manner as the above-mentioned Test Example 1.

Chenopodium album [2] = assay: Farming soil treatment test; conditions: soil surface spray prior to weed growth, 30 days
Description: as §2, §3, §4, §5

Amaranthus retroflexus [3] = assay: Farming soil treatment test; conditions: soil surface spray prior to weed growth, 30 days
Description: as §2, §3, §4, §5

Scirpus juncoides = assay: Paddy herbicidal activity test; conditions: irrigated paddy pot, 30 days
Description: as §1

Echinochloa crus-galli = assay: Paddy herbicidal activity test; conditions: irrigated paddy pot, treated at 3.5 leaf stage of Echinochloa crus-galli, 30 days
Description: as §1

Monochoria vaginalis = assay: Paddy herbicidal activity test; conditions: irrigated paddy pot, 30 days
Description: as §1

Galinsoga parviflora = assay: Weed foliar treatment test (Test 4, 4.0 to 5.0 leaf stage); conditions: 10 g a.i./10a; foliar spray at 4.0 to 5.0 leaf stage of Digitaria ciliaris; 20 days
Description: (§6) Field soil was filled into a 1/4500 are pot followed by seeding with Digitaria ciliaris and Galinsoga parviflora, covering with soil and cultivating in a glass greenhouse at an average atmospheric temperature of 25° C.
(§7) Wettable powders of Target Compound (I) shown in Table 1 prepared in compliance with the preparation examples were diluted with water to the prescribed amount of chemical and uniformly sprayed onto the weeds using 100 liters of sprayed water per 10 are when Digitaria ciliaris had grown to the 4.0 to 5.0 leaf stage (plant height: 10 cm to 15 cm).
(§8) After treating for 20 days in a glass greenhouse at an average atmospheric temperature of 25° C., the herbicidal efficacy thereof was investigated.
as §5

Digitaria ciliaris [4] = assay: as above; conditions: 10 g a.i./10a; foliar spray at 4.0 to 5.0 leaf stage of Digitaria ciliaris (plant height 10 cm to 15 cm); 20 days
Description: as §6, §7, §8, §5

Digitaria ciliaris [5] = assay: Weed foliar treatment test (Test 3, 1.0 to 2.0 leaf stage); conditions: foliar spray at 1.0 to 2.0 leaf stage of Digitaria ciliaris, 3 weeks
Description: (§9) Soil was filled into a 1/6000 are pot followed by seeding with Digitaria ciliaris, Chenopodium album and Amaranthus retroflexus, covering with soil, and cultivating in a glass greenhouse at an average atmospheric temperature of 25° C.
as §7, with “150” for “100”, “1.0” for “4.0”, “2.0” for “5.0”, “stage.” for “stage (plant height: 10 cm to 15 cm).”
(§10) After treating for 3 weeks in a glass greenhouse at an average atmospheric temperature of 25° C., the herbicidal efficacy thereof was investigated.
as §5

Chenopodium album [6] = assay: as above; conditions: foliar spray at 1.0 to 2.0 leaf stage of Digitaria ciliaris, 3 weeks
Description: as §9
as §7, with “150” for “100”, “1.0” for “4.0”, “2.0” for “5.0”, “stage.” for “stage (plant height: 10 cm to 15 cm).”
as §10, §5

Amaranthus retroflexus [7] = assay: as above; conditions: foliar spray at 1.0 to 2.0 leaf stage of Digitaria ciliaris, 3 weeks
Description: as §9
as §7, with “150” for “100”, “1.0” for “4.0”, “2.0” for “5.0”, “stage.” for “stage (plant height: 10 cm to 15 cm).”
as §10, §5

CCOC(=O)N(C(=O)OCC)c1c(C#N)cnn1-c1nn2c(c1Br)CCCC2 [Compound 8]
phytotoxicity Oryza sativa (Oryza sativa; 1g a.i./10a): 0 (0 (exponent): 0% to less than 10% (growth inhibition rate))
phytotoxicity Oryza sativa (Oryza sativa; 5g a.i./10a): 1 (1: 10% to less than 20%)
herbicidal efficacy Digitaria ciliaris (Digitaria ciliaris [1]; 5g a.i./10a): 10 (10: 100%)
herbicidal efficacy Digitaria ciliaris (Digitaria ciliaris [1]; 10g a.i./10a): 10 (10: 100%)
herbicidal efficacy Chenopodium album (Chenopodium album [2]; 5g a.i./10a): 9 (9: 90% to less than 100%)
herbicidal efficacy Chenopodium album (Chenopodium album [2]; 10g a.i./10a): 9 (9: 90% to less than 100%)
herbicidal efficacy Amaranthus retroflexus (Amaranthus retroflexus [3]; 5g a.i./10a): 10 (10: 100%)
herbicidal efficacy Amaranthus retroflexus (Amaranthus retroflexus [3]; 10g a.i./10a): 10 (10: 100%)
herbicidal efficacy Scirpus juncoides (Scirpus juncoides; 1g a.i./10a): 9 (9: 90% to less than 100%)
herbicidal efficacy Scirpus juncoides (Scirpus juncoides; 5g a.i./10a): 9 (9: 90% to less than 100%)
herbicidal efficacy Echinochloa crus-galli (Echinochloa crus-galli; 1g a.i./10a): 10 (10: 100%)
herbicidal efficacy Echinochloa crus-galli (Echinochloa crus-galli; 5g a.i./10a): 10 (10: 100%)
herbicidal efficacy Monochoria vaginalis (Monochoria vaginalis; 1g a.i./10a): 10 (10: 100%)
herbicidal efficacy Monochoria vaginalis (Monochoria vaginalis; 5g a.i./10a): 10 (10: 100%)
herbicidal efficacy Galinsoga parviflora (Galinsoga parviflora): 10 (10: 100%)
herbicidal efficacy Digitaria ciliaris (Digitaria ciliaris [4]): 10 (10: 100%)
herbicidal efficacy Digitaria ciliaris (Digitaria ciliaris [5]; 5g a.i./10a): 10 (10: 100%)
herbicidal efficacy Digitaria ciliaris (Digitaria ciliaris [5]; 10g a.i./10a): 10 (10: 100%)
herbicidal efficacy Chenopodium album (Chenopodium album [6]; 5g a.i./10a): 10 (10: 100%)
herbicidal efficacy Chenopodium album (Chenopodium album [6]; 10g a.i./10a): 10 (10: 100%)
herbicidal efficacy Amaranthus retroflexus (Amaranthus retroflexus [7]; 5g a.i./10a): 10 (10: 100%)
herbicidal efficacy Amaranthus retroflexus (Amaranthus retroflexus [7]; 10g a.i./10a): 10 (10: 100%)

C=CCOC(=O)N(C(=O)OCC=C)c1c(C#N)cnn1-c1nn2c(c1Cl)CCCC2 [Compound 14]
phytotoxicity Oryza sativa (Oryza sativa; 1g a.i./10a): 1 (1: 10% to less than 20%)
phytotoxicity Oryza sativa (Oryza sativa; 5g a.i./10a): 1 (1: 10% to less than 20%)
herbicidal efficacy Digitaria ciliaris (Digitaria ciliaris [1]; 5g a.i./10a): 10 (10: 100%)
herbicidal efficacy Digitaria ciliaris (Digitaria ciliaris [1]; 10g a.i./10a): 10 (10: 100%)
herbicidal efficacy Chenopodium album (Chenopodium album [2]; 5g a.i./10a): 9 (9: 90% to less than 100%)
herbicidal efficacy Chenopodium album (Chenopodium album [2]; 10g a.i./10a): 10 (10: 100%)
herbicidal efficacy Amaranthus retroflexus (Amaranthus retroflexus [3]; 5g a.i./10a): 10 (10: 100%)
herbicidal efficacy Amaranthus retroflexus (Amaranthus retroflexus [3]; 10g a.i./10a): 10 (10: 100%)
herbicidal efficacy Scirpus juncoides (Scirpus juncoides; 1g a.i./10a): 9 (9: 90% to less than 100%)
herbicidal efficacy Scirpus juncoides (Scirpus juncoides; 5g a.i./10a): 10 (10: 100%)
herbicidal efficacy Echinochloa crus-galli (Echinochloa crus-galli; 1g a.i./10a): 10 (10: 100%)
herbicidal efficacy Echinochloa crus-galli (Echinochloa crus-galli; 5g a.i./10a): 10 (10: 100%)
herbicidal efficacy Monochoria vaginalis (Monochoria vaginalis; 1g a.i./10a): 10 (10: 100%)
herbicidal efficacy Monochoria vaginalis (Monochoria vaginalis; 5g a.i./10a): 10 (10: 100%)
herbicidal efficacy Galinsoga parviflora (Galinsoga parviflora): 10 (10: 100%)
herbicidal efficacy Digitaria ciliaris (Digitaria ciliaris [4]): 10 (10: 100%)
herbicidal efficacy Digitaria ciliaris (Digitaria ciliaris [5]; 5g a.i./10a): 10 (10: 100%)
herbicidal efficacy Digitaria ciliaris (Digitaria ciliaris [5]; 10g a.i./10a): 10 (10: 100%)
herbicidal efficacy Chenopodium album (Chenopodium album [6]; 5g a.i./10a): 10 (10: 100%)
herbicidal efficacy Chenopodium album (Chenopodium album [6]; 10g a.i./10a): 10 (10: 100%)
herbicidal efficacy Amaranthus retroflexus (Amaranthus retroflexus [7]; 5g a.i./10a): 10 (10: 100%)
herbicidal efficacy Amaranthus retroflexus (Amaranthus retroflexus [7]; 10g a.i./10a): 10 (10: 100%)
